Each structure is given as a SMILES string.

Usually EC50 stands for the midpoint of the concentration-response curve.

For assay [1], the system named is small pulmonary arteries in mouse precision-cut lung slices. Kind of assay: Relaxation of pre-constricted small pulmonary arteries in mouse precision-cut lung slices. Type of assay: cell-based. Conditions: for EC50: Mus musculus, pre-constricted with 100 nM 5-HT; for maximal relaxation: % relaxation of pre-constriction to 100 nM 5-HT. As to the method: Precision cut lung slices were prepared using a modification of previously reported procedures (see e.g., Jiang et al., 2010, J. Pharmacol. Exp. Ther. 334:703-709) and based on the method described by Perez-Joghbi and Sanderson (see e.g., Perez-Joghbi, J. F. and Sanderson, M. J., Am. J. Physiol., 2007, 293:L1000-L1011). Mice were euthanized with CO2, a 2 cm long incision was made in the midline of the neck above the trachea and the trachea was isolated from surrounding tissue. The trachea was cut open and cannulated with PE 90 plastic tubing. A solution of 2% low melting point agarose (Sigma-Aldrich, St. Louis Mo.) in Hanks Buffered Salt solution (HBSS) was prepared at 37° C. Lungs were inflated by injecting 1.2 ml of 2% agarose followed by 0.2 ml of air through the tracheal cannula. The chest was then opened along the midline and the heart was exposed. A solution of 6% gelatin (Sigma-Aldrich, St. Louis Mo.) was prepared in HBSS and 0.4 mL was injected into the right ventricle using a 1 mL syringe and 26 gauge needle, to fill the pulmonary arteries with gelatin. The mouse was cooled to 4° C. for 15 min to harden the agarose and gelatin to stiffen the lung for sectioning. The individual lung lobes were then isolated, glued to a platform and sliced perpendicular to the long axis of the lung. 150 μm thick slices were prepared in ice cold HBSS using an EMS-4000 tissue slicer (Electron Microscopy Sciences, Fort Wash. Pa.). The slices were maintained in sterile, serum-free Dulbecco's modified Eagle's medium (DMEM, Gibco, Grand Island, N.Y.) containing penicillin (100 U/mL, Cellgro, Manassas, Va.), streptomycin (100 μg/mL, Cellgro, Manassas, Va.) and amphotericin B (1.5 μg/mL, Cellgro, Manassas, Va.) at 37° C. and 5% CO2+95% air in a humidified incubator for not more than 3 days.
The method used to measure constriction and relaxation of pulmonary arteries in lung slices is a modification of a method previously described that was used to measure constriction and relaxation of mouse airways (see e.g., Jiang et al., 2010 J. Pharmacol. Exp. Ther. 334:703-709). Lung slices were placed on glass coverslips in a 1 mL volume incubation chamber and held in place with nylon mesh (Small Parts Inc, Miami Lakes, Fla.). The chamber was placed on the stage of a Nikon (Melville, N.Y.) TE200 inverted microscope at room temperature and slices incubated in HBSS containing 10 mM HEPES buffer. Pulmonary arteries in lung slices were imaged using a 20× objective and images recorded using a CoolSNAP HQ2 digital camera (Photometrics, Tucson Ariz.). Images in the absence and the presence of the vasoconstrictor 5-HT (Sigma-Aldrich, St. Louis, Mo.) and the vasorelaxants pirfenidone (Sigma-Aldrich, St. Louis Mo.) and CXN-8, CXN-9 and CXN-16 were collected and vasoconstriction and vasorelaxation was calculated by pixel summing of the cross-sectional area of the pulmonary artery lumen before and after addition of the test agent, using ImageJ software (http://imagej.nih.gov). A decrease in cross-sectional area was defined as vasoconstriction while an increase in cross-sectional area was defined as vasorelaxation, as shown in FIGS. 1A-1B.
First, small pulmonary arteries were pre-constricted in mouse precision-cut lung slices with 100 nM 5-HT, a concentration that causes submaximal constriction of pulmonary arteries, as shown in FIG. 1A.

Assay [2] deals with mouse isolated extralobar pulmonary arteries. The assay is described as follows: Relaxation of pre-constricted mouse isolated extralobar pulmonary artery rings (isometric tension). Format: cell-based. The conditions noted are these: for relaxation: 1 μM; for EC50: Mus musculus. From the text:
Mouse extralobar pulmonary arteries were isolated and prepared using a modification of a previously reported procedure (see e.g., Bockman et al., 1996, J. Pharmacol. Exp. Ther. 278:1235-1243). Mice were euthanized with CO2, the chest was opened, and the heart and lung combined were isolated from surrounding tissue. The main pulmonary artery was isolated from its origin at the right ventricle, past its bifurcation into the right and left pulmonary arteries. The artery segment was removed and placed in Krebs solution (composition in mM: NaCl 126, KCl 5.5, CaCl2 2.5, NaH2PO4 1.2, MgCl2 1.2, NaHCO3 25, dextrose 11.1, Na2Ca EDTA 0.029) equilibrated with 95%02-5% CO2 (pH 7.4). The pulmonary artery segment was cleaned of connective tissue and the main pulmonary artery and its right and left branches were cut into 2 mm long rings. The rings were mounted using 2 stainless steel pins (0.1 mm in diameter) passed through the artery lumen. One pin was attached to a Kent isometric force transducer (Kent Scientific Corp, Torrington Conn.) for measurement of isometric tension while the second pin was held in a fixed position. This allowed for measurement of contraction and relaxation of the ring in the circular direction. Mounted rings were placed in 10 mL of Krebs solution in glass muscle chambers (Radnoti, Monrovia, Calif.) gassed with 95% 02-5% CO2, and maintained at 37° C. Rings were washed with Krebs solution and equilibrated for 90-120 min at a passive resting tension of 150 mg before experiments with test agents were started.
Mouse isolated extralobar pulmonary arteries were pre-constricted with 250 nM 5-HT, a concentration that causes submaximal constriction, as shown in FIG. 2A. Cumulative addition of pirfenidone and CXN-8 caused a concentration-dependent relaxation of mouse pulmonary arteries with a maximal relaxation of 84.9±3.4% and 76.7±7.0%, respectively, as shown in FIG. 2B.
The endothelium was removed from pulmonary arteries by inserting a small (200 μm diameter) wire into the inside lumen of the arteries and gently rubbing the internal surface. To test for the presence of functional endothelium, rings with and without rubbing were contracted with 250 nM 5-HT followed by relaxation using 1 μM of the endothelium dependent vasorelaxant acetylcholine. Rings that relaxed by 5% or less were considered as lacking the endothelium. Rings with and without endothelium were used to test the relaxant effects of CXN-8.
The synthesis of NO is mediated by a family of NO synthase enzymes. It is well accepted that acetylcholine induces relaxation of pulmonary arteries via endothelium-dependent NO production. Nitric oxide production was inhibited in pulmonary arteries by 30 min incubation with the nitric oxide synthesis inhibitor nitro-L-arginine methyl ester (L-NAME, 100 μM). To test for nitric oxide synthase inhibition by L-NAME, rings were contracted with 250 nM 5-HT followed by relaxation using 1 μM of the nitric oxide dependent vasorelaxant acetylcholine. The relaxant effects of CXN-8 were then tested in rings in the absence (with nitric oxide) and the presence (without nitric oxide) of L-NAME.

A further assay has as its system eNOS−/− mice. The assay is described as follows: Right ventricular systolic pressure (RVSP) in eNOS-knockout mice, acute intravenous CXN-8. Conditions: 4.6 mg/kg i.v. via femoral vein, baseline 40.7±7.6 mmHg. Type of assay: in vivo, mouse. As to the method:
(§1) Mice (20-25 g) were anesthetized via an intraperitoneal (i.p.) injection of a combination of xylazine (10 mg/kg body weight) and ketamine (100 mg/kg body weight). One-half dose was given as supplemental anesthesia as needed. Animals were placed on a heating pad set to maintain body temperature at approximately 37° C. The neck and upper chest area were cleaned with 70% isopropyl alcohol and a 2 cm long incision was made anterior to the manubrium on the right side and above the jugular fossa. The jugular fossa was identified and the external jugular vein was isolated from surrounding tissue. The anterior projection of the jugular vein was tied off with 8-0 silk suture and a 1 mm incision was made in the jugular vein. A 1 French Mikro-Tip pressure catheter (Millar Inc, Houston, Tex.) catheter was inserted into the jugular vein and advanced through the right atrium into the right ventricle to measure ventricular systolic pressure of mice via a pressure transducer using PowerLab monitoring hardware and software (AD Instruments, Colorado Springs, Colo., USA). The pressure catheter was secured in place using an 8-0 silk suture tied around the catheterized jugular vein. […]
(§2) CXN-8 was administered intravenously in a dose-escalation manner in 15 minute intervals from doses of 0.14 mg/kg to 4.6 mg/kg. Hemodynamic indices, including heart rate (HR) and RVSP were measured. […]

Another assay has as its system RGS2−/− mice. The assay is described as follows: RVSP in RGS2 knockout mice, acute intravenous CXN-8. Type of assay: in vivo, mouse. Conditions: RGS2 KO mice, 4.6 mg/kg i.v. via femoral vein; baseline 36.7±1.9 mmHg. As to the method: as §1, §2
The subject of assay [3] is mouse isolated extralobar pulmonary arteries. The assay is described as follows: Relaxation of pre-constricted mouse isolated extralobar pulmonary artery rings (isometric tension). Conditions: for EC50: Mus musculus. Format: cell-based.
Another assay deals with hypoxic mice (C57BL/6). Kind of assay: RVSP in chronic hypoxia model of PH in mice, acute intravenous CXN-8. Type of assay: in vivo, mouse. The conditions noted are these: 1.4 mg/kg i.v. via femoral vein, baseline 56.4±1.0 mmHg. As for the experimental part:
as §1, §2

[4] abbreviates: intact rings pre-constricted with 250 nM 5-HT.
Where [5] appears, read: 250 nM 5-HT, pre-treatment with L-NAME (100 μM).
Setting [6] is: endothelium-denuded arteries, 250 nM 5-HT.

Consider `Cc1ccc(=O)n(-c2ccc(OCCCCN(C)C)cc2)c1` [CXN-16, 1-(4-(4-(dimethylamino)butoxy)phenyl)-5-methylpyridin-2(1H)-one], for which, in assay [1] (unit inferred), it took 1700 nM to reach a half-maximal effect (EC50).

`CC(=O)OCC[N+](C)(C)C` [acetylcholine, reference compound]: the relaxation in assay [2] (250 nM 5-HT-pre-contracted endothelium-denuded arteries) came out at 5%; in assay [2] (250 nM 5-HT-pre-contracted endothelium-intact arteries) it was 42%.

Regarding `Cc1ccc(=O)n(-c2ccccc2)c1` [pirfenidone, 5-methyl-1-phenylpyridin-2(1H)-one, reference compound], the values for the EC50 in assay [2] (setting [4]) and in assay [1] (cumulative addition) were 94000 nM and 14300 nM, respectively. Further, the maximal relaxation was 84.9±3.4% in assay [2] (setting [4]) and 81.2±4.8% in assay [1].

Regarding `Cc1ccc(=O)n(-c2ccc(OCCCCN3CCCCC3)cc2)c1` [CXN-9, 5-methyl-1-(4-(4-(piperidin-1-yl)butoxy)phenyl)pyridin-2(1H)-one], the response in assay [1] was half-maximal at 69.8 nM (EC50).

Consider `Cc1ccc(=O)n(-c2ccc(OCCCN3CCCCC3)cc2)c1` [CXN-8, 5-methyl-1-(4-(3-(piperidin-1-yl)propoxy)phenyl)pyridin-2(1H)-one], for which the results for the RVSP after treatment in the assay on eNOS−/− mice, with RGS2−/− mice and in the assay with hypoxic mice (C57BL/6) were 29.3±1.5 mmHg, 19.6±0.9 mmHg and 37.4±1.7 mmHg, respectively. The maximal relaxation worked out at 74.5±7.4% in assay [2] (250 nM 5-HT, absence of L-NAME); 45.5±6.2% in assay [2] (setting [5]); 47.2±2.9% in assay [2] (setting [6]); 76.7±7.0% in assay [2] (setting [4]); 70.6±7.1% in assay [3] (U46619 (20 nM) pre-contracted arteries); 86.6±4.1% in assay [3] (endothelin 1 (ET-1, 10 nM) pre-contracted arteries). The compound further displayed a maximal relaxation in assay [1] of 77.1±9.6%. The 50% effective concentration (EC50) in assay [2] (250 nM 5-HT, absence of L-NAME) stood at 5.6 nM; in assay [2] (setting [5]), 9.9 nM; in assay [2] (setting [6]) it was 10.9 nM; in assay [2] (setting [4]), 5.2 nM; in assay [3] (ET-1 pre-contracted arteries), 21.7 nM; in assay [3] (U46619 pre-contracted arteries), 40.3 nM. In assay [1], this compound showed an EC50 of 5.6 nM.

(Values after US10420759B2, “Small molecule therapies for pulmonary hypertension” (Creighton University, priority 2016, dated 2019).)
